{"source": "paper PMC7932080", "about": "“In vitro study of Hesperetin and Hesperidin as inhibitors of zika and chikungunya virus proteases” (PLoS ONE, 2021)", "key": {"CHIKV [1]": {"test_system": "CHIKV", "settings": "cited from earlier work"}, "Vero cells": {"test_system": "Vero cells", "experiment": "Cell viability through MTT assay"}, "CHIKV [2]": {"test_system": "CHIKV", "experiment": "Plaque reduction antiviral assay in Vero cells", "settings": "~50 PFU, two inhibitor concentrations"}}}
{"smiles": "COc1ccc(C2CC(=O)c3c(O)cc(O)cc3O2)cc1O", "note": "(stereo not shown) [HST, 3’,5,7-trihydroxy-4’-methoxyflavanone]", "values": [{"measurement": "Antiviral activity in anti-entry, anti-adsorption, direct virucidal assays", "setting": "CHIKV [1]", "value": "no antiviral activity"}, {"measurement": "Cytotoxic effect at the calculated IC50 concentrations", "setting": "Vero cells; 2.3 to 300 µM, 2 days", "value": "no cytotoxic effect"}, {"measurement": "50% cytotoxic concentration", "setting": "Vero cells; 48 h, concentrations up to 300 µM", "value": "> 300", "unit": "µM"}, {"measurement": "Antiviral activity, plaque reduction", "setting": "CHIKV [2]", "value": "no antiviral activities"}]}
